Experimental data published in patent publication EP0478101B1, “Therapeutic use of peptides having thrombospondin-like activity” (W.R. Grace & Co.-Conn., priority 1990, dated 1992).
Positions of bridges follow the written chain, without caps; N, C: chain ends. Residues, ends and D or L forms follow the SMILES beside them. No end group written: not given here.

Experiments:
Assay in all cases: Cell adhesion to peptide-coated wells compared with thrombospondin
Format in all cases: cell-based
Details in all cases: two micrograms of peptide dried on well, 200,000 cells per well, 30 minutes at 37°C, relative to thrombospondin
[1] = tested on: A549 Human Lung Adenocarcinoma
Protocol: (§1) In this example a series of peptides were tested to determine the abilities of the peptides to bind various cells as compared to thrombospondin. It is believed that thrombospondin acts in metastasis through its adhesive properties. An assay was developed, generally in accordance with the disclosure of Tuszynski et al. (Anal. Bio. (1990) 184:189-91) which evaluates the ability of cells to adhere to the thrombospondin fragments or analogs of the invention. In this assay, thrombospondin (purified by the method of Tuszynski et al., J. Biol. Chem. (1985) 260:12240-5) served as a positive control, bovine serum albumin (BSA) (Sigma Chemical Co.) and the peptides ANKHYF and VCTGSC and TCVCGS served as negative controls. The cell types evaluated were B16F10 mouse melanoma cells, A549 human lung adrenocarcinoma cells, bovine aortic smooth muscle cells, and rabbit smooth muscle cells.
(§2) Thrombospondin analogs of the invention were synthesized as described in Examples 1-4. Two micrograms of peptide or control proteins were air dried overnight on the wells of a 96-well microtiter plate. Wells were then washed with HEPES-buffered saline and blocked for 1 hour with 1% fatty acid free BSA in HEPES-buffered saline.
(§3) The various cells were grown and harvested during log phase of growth using standard procedures. The harvested cells were washed two times in serum-free Dulbecco's minimum essential medium (DMEM) (Flow Laboratories) and suspended in HEPES-buffered saline, containing 5 mM glucose and 100 µM MgCl2 at a final concentration of […]. Of the cell suspension 200,000 cells per well was added to each well of the microtiter dish containing the various ligands and the dish incubated at 37°C in a CO2 incubator for 30 minutes. Nonadherent cells were removed by aspiration and the wells washed three times with 200 µl of PBS. The total cell-associated protein was determined by dissolving the attached cells directly in the microtiter wells with 200 µl of the Pierce BCA working solution (Pierce Chem. Co. Booklet No. 23225 (1987)). The plate was covered with an adhesive mylar sheet (Flow Labs) and incubated at 60°C for 30 minutes. Plates were allowed to cool to room temperature, cover sheets were removed, and the absorbance of each well was determined at 562 nm with a microtiter plate reader (Biotek, Burlington, Vermont.) Absorbances were converted to number of adherent cells by means of an empirically determined conversion factor.

B16-F10 Mouse Melanoma = tested on: B16-F10 Mouse Melanoma
Protocol: as §1, §2, §3

[2] = tested on: Bovine Aortic Endothelia 1 Cells
Protocol: [Worded in the source for another cell line; this cell line is reported under the same test.] as §1, §2, §3

Rabbit Smooth Muscle = tested on: Rabbit Smooth Muscle
Protocol: as §1, §2, §3

Row | Molecule | Percent of TSP-adherent Cells [1] | Percent of TSP-adherent Cells (B16-F10 Mouse Melanoma) | Percent of TSP-adherent Cells [2] | Percent of TSP-adherent Cells (Rabbit Smooth Muscle)
1 | CC(C)[C@H](NC(=O)[C@H](CS)NC(=O)[C@@H](N)[C@@H](C)O)C(=O)N[C@@H](CS)C(=O)NCC(=O)N[C@@H](CO)C(=O)O [TCVCGS, reference compound] (H-TCVCGS-OH) | 10% | 10% | 6% | 8%
2 | CC(C)[C@H](NC(=O)[C@H](CCCNC(=N)N)NC(=O)[C@@H](N)CS)C(=O)N[C@H](C(=O)N[C@@H](CS)C(=O)NCC(=O)O)[C@@H](C)O [CRVTCG (SEQ ID NO:5), CRVTCG] (H-CRVTCG-OH) | 79% | 92% | 80% | 82%
3 | CC(C)[C@H](NC(=O)[C@H](CO)NC(=O)[C@@H](N)CS)C(=O)N[C@H](C(=O)N[C@@H](CS)C(=O)N[C@@H](CCCNC(=N)N)C(=O)O)[C@@H](C)O [CSVTCR (SEQ ID NO:2), CSVTCR] (H-CSVTCR-OH) | 90% | 92% | 99% | 159%
4 | CC(C)[C@@H]1NC(=O)[C@H](CO)NC(=O)[C@@H](N)CSSC[C@@H](C(=O)NCC(=O)O)NC(=O)[C@H]([C@@H](C)O)NC1=O [Cyclic CSVTCG (SEQ ID NO:1), cyclic CSVTCG-Acid] (H-CSVTCG-OH; disulfide 1-5) | 29% | 30% | 25% | 43%
5 | CC(C)[C@H](NC(=O)[C@H](CO)NC(=O)[C@@H](N)CS)C(=O)N[C@H](C(=O)N[C@@H](CS)C(=O)NCC(=O)O)[C@@H](C)O [CSVTCG (SEQ ID NO:1), CSVTCG] (H-CSVTCG-OH) | 29% | 40% | 49% | 44%
6 | C[C@@H](O)[C@H](NC(=O)[C@H](CO)NC(=O)[C@@H](N)CS)C(=O)N[C@@H](CO)C(=O)N[C@@H](CS)C(=O)NCC(=O)O [CSTSCG (SEQ ID NO:4), CSTSCG] (H-CSTSCG-OH) | 23% | 37% | 39% | 22%
7 | CC(C)[C@H](N)C(=O)N[C@@H](CS)C(=O)N[C@H](C(=O)NCC(=O)N[C@@H](CO)C(=O)N[C@@H](CS)C(=O)O)[C@@H](C)O [VCTGSC, reference compound] (H-VCTGSC-OH) | 8% | 2% | 3% | 17%
8 | ASVTAR [ASVTAR (SEQ ID NO:7), ASVTAR] |  | 39% |  | 
9 | C[C@@H](O)[C@H](NC(=O)[C@H](CO)NC(=O)[C@@H](N)CS)C(=O)N[C@@H](CO)C(=O)N[C@@H](CS)C(=O)N[C@@H](CCCNC(=N)N)C(=O)O [CSTSCR (SEQ ID NO:3), CSTSCR] (H-CSTSCR-OH) | 104% | 39% | 65% | 82%
10 | Blocked CSVTCG [Blocked CSVTCG (SEQ ID NO:1)] | 44% | 32% | 22% | 46%
11 | ANKHYF [ANKHYF, reference compound] | 10% | 8% | 0% | 17%
